pIC50: −log10 of the molar value. Structures can show the parent of a compound that is named as a salt.
Target: T1, recombinant human DPP-1 (Cathepsin C) (Homo sapiens, UniProt P53634)
T1 construct: made in house
Assay: DPP-1 Inhibition Assay (In Vitro), fluorogenic substrate GR-AMC
Assay type: biochemical
Details: 0.15 nM DPP-1, 10 uM GR-AMC, pH 7.0, room temperature; average value where tested multiple times
Procedure: Test compounds were assessed for DPP-1 (Cathepsin C) inhibitory activity using a fluorogenic substrate, GR-AMC (Glycine-Arginine-amino-4-methylcoumarin, Bachem, I-1215). The amount of amino-methylcoumarin released is proportional to the DPP-1 activity, and the reaction is monitored kinetically with a Molecular Devices plate reader using black 96-well plates.
All compounds were tested under room temperature conditions. The assay buffer consisted of 50 mM HEPES, pH 7.0, 100 mM NaCl, 2 mM glutathione (GSH), and 0.002% TWEEN 20. GSH and TWEEN 20 were added to the buffer fresh daily. Just prior to use, an in-house preparation of recombinant human DPP-1 (240 μM stock, MW 49.6 kD) was diluted 600-fold in assay buffer containing fresh 2 mM dithiothreitol (DTT) to activate the enzyme, then diluted into assay buffer (without DTT) 133-fold for a DPP-1 working solution of 3 nM. Test compounds were diluted in DMSO for 20× their final assay concentrations.
Additions to a 96-well black Costar 3915 plates were as follows: 90 μL of 11 μM GR-AMC, 5 μL test compound (followed by mixing), and 5 μL 3 nM DPP-1 to start the reaction. Fluorescent reactions were monitored kinetically at 360 nm excitation, 440 nm emission on a Molecular Devices Spectramax XPS reader. The Softmax Pro software of the reader determined the initial velocity of the selected data (the first 3-5 minutes of the reaction), and the best linear regression fit of the initial kinetic data. Final assay conditions were 0.15 nM DPP-1, 10 uM GR-AMC, 50 mM HEPES, pH 7.0, 100 mM NaCl, 2 mM GSH, 0.002% TWEEN 20, 1 uM DTT, 5.0% DMSO. Initial velocity rates were plotted vs. test compound concentration by use of a four-parameter logistics equation (nonlinear regression, sigmoidal dose-response (variable slope), with fixed Hill (1.0) using GraphPad Prism® software for determination of DPP-1 IC50. Within-run assay coefficient of variation (CV) was generally <10%; between-run CV <20%.
Representative compounds of the present invention were tested according to the procedure as described above, with results as listed in Table 5, below.

T1 sequence (P53634 25-463): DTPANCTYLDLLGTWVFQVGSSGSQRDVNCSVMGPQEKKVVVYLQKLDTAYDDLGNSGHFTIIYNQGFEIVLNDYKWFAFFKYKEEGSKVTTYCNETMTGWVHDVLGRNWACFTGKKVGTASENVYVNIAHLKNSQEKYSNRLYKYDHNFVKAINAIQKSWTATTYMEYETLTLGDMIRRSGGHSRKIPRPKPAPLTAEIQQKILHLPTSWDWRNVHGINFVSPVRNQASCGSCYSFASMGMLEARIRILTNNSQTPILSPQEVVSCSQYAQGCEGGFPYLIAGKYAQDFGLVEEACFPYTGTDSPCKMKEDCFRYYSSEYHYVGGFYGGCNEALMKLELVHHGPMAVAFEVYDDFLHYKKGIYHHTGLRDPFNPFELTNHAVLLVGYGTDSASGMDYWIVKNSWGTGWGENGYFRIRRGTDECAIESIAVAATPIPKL

| Compound | pIC50 |
| --- | --- |
| N[C@@H](Cc1cccs1)C(=O)N1CCC(Cc2ccc(I)cc2)(C(=O)NC2CCCCC2)CC1 [Compound 41] | 7.43 |
| N[C@@H](Cc1cccs1)C(=O)N1CCC(C(=O)NC2CCCCC2)(c2ccccc2)CC1 [Compound 69] | 7.14 |
| C[C@@H](O)[C@H](N)C(=O)N1CCC(C(=O)NCC2CCCCC2)(c2ccccc2)CC1 [Compound 139] | 5.59 |
| CC[C@H](N)C(=O)N1CCC(Cc2cccnc2)(C(=O)OCC2CCCCC2)CC1 [Compound 23] | 5.09 |
| N[C@@H](Cc1cccs1)C(=O)N1CCC(Cc2ccc(-c3cccnc3)cc2)(C(=O)NC2CCCCC2)CC1 [Compound 50] | 7.46 |
| Cc1ccc(C2(C(=O)NCC3CCCCC3)CCN(C(=O)[C@@H](N)Cc3cccs3)CC2)cc1 [Compound 129] | 7.77 |
| CC[C@H](N)C(=O)N1CCC(Cc2ccc(I)cc2)(C(=O)NC2CCCCC2)CC1 [Compound 77] | 5.64 |
| N[C@@H](Cc1cccs1)C(=O)N1CCC(C(=O)N[C@H]2CC[C@H](C(=O)O)CC2)(c2ccccc2)CC1 [Compound 115] | 6.70 |
| N[C@@H](Cc1cccs1)C(=O)N1CCC(Cc2ccc(-c3nnn[nH]3)cc2)(C(=O)NCC2CCCCC2)CC1 [Compound 127] | 7.08 |
| N#Cc1ccccc1CC1(C(=O)NC2CCCCC2)CCN(C(=O)[C@@H](N)Cc2cccs2)CC1 [Compound 82] | 6.96 |
| N[C@@H](Cc1cccs1)C(=O)N1CCC(C(=O)N[C@H]2CC[C@H](O)CC2)(c2cc(C(F)(F)F)cc(C(F)(F)F)c2)CC1 [Compound 120] | 6.64 |
| N[C@@H](Cc1cccs1)C(=O)N1CCC(Cc2cccc(-c3cncnc3)c2)(C(=O)NC2CCCCC2)CC1 [Compound 97] | 7.41 |
| N[C@@H](Cc1cccs1)C(=O)N1CCC(Cc2cccc(I)c2)(C(=O)NC2CCCCC2)CC1 [Compound 96] | 7.08 |
| N[C@@H](Cc1cccs1)C(=O)N1CCC(Cc2ccc(-c3cccc(C(=O)O)c3)cc2)(C(=O)NC2CCCCC2)CC1 [Compound 55] | 7.00 |
| CC[C@H](N)C(=O)N1CCC(Cc2ccc(C#N)cc2)(C(=O)OCC2CCCCC2)CC1 [Compound 17] | 5.36 |
| N[C@@H](Cc1c[nH]cn1)C(=O)N1CCC(Cc2ccc([N+](=O)[O-])cc2)(C(=O)NC2CCCCC2)CC1 [Compound 79] | 6.21 |

| Compound | pIC50 |
| --- | --- |
| COC(=O)[C@H]1CC[C@H](CNC(=O)C2(c3ccccc3)CCN(C(=O)[C@@H](N)Cc3cccs3)CC2)CC1 [Compound 110] | 6.77 |
| N[C@@H](Cc1c[nH]cn1)C(=O)N1CCC(Cc2cccnc2)(C(=O)NC2CCCCC2)CC1 [Compound 68] | 6.04 |
| COc1ccc(-c2ccc(CC3(C(=O)NC4CCCCC4)CCN(C(=O)[C@@H](N)Cc4cccs4)CC3)cc2)cn1 [Compound 44] | 7.54 |
| Cc1ccc(C2(C(=O)NCC3CCOCC3)CCN(C(=O)[C@@H](N)Cc3cccs3)CC2)cc1 [Compound 130] | 7.39 |
| N[C@@H](Cc1ccccc1)C(=O)N1CCC(Cc2ccc(-c3ccccc3)cc2)(C(=O)NCC2CCCCC2)CC1 [Compound 108] | ~5.40 |
| N[C@@H](Cc1cccs1)C(=O)N1CCC(Cc2cccc(-c3ccc(C(=O)O)cc3)c2)(C(=O)NC2CCCCC2)CC1 [Compound 102] | 6.72 |
| N#Cc1ccc(CC2(C(=O)OCC3CCCCC3)CCN(C(=O)[C@@H](N)Cc3c[nH]cn3)CC2)cc1 [Compound 16] | 5.92 |
| N[C@@H](Cc1cccs1)C(=O)N1CCC(Cc2ccc(-c3ccncc3)cc2)(C(=O)NC2CCCCC2)CC1 [Compound 42] | 7.54 |
| CC[C@H](N)C(=O)N1CCC(Cc2ccc(-c3ccccc3)cc2)(C(=O)NCC2CCCCC2)CC1 [Compound 5] | 5.52 |
| CSCC[C@H](N)C(=O)N1CCC(Cc2ccc(I)cc2)(C(=O)NC2CCCCC2)CC1 [Compound 73] | 6.60 |
| N[C@@H](Cc1cccs1)C(=O)N1CCC(Cc2ccccc2)(C(=O)OCC2CCCCC2)CC1 [Compound 11] | 6.66 |
| N[C@@H](Cc1cccs1)C(=O)N1CCC(Cc2cccc(-c3ccccc3)c2)(C(=O)OCC2CCCCC2)CC1 [Compound 30] | 6.06 |
| CC[C@H](N)C(=O)N1CCC(Cc2ccncc2)(C(=O)OCC2CCCCC2)CC1 [Compound 21] | 5.13 |
| N[C@@H](Cc1c[nH]cn1)C(=O)N1CCC(Cc2ccc(C(F)(F)F)cc2)(C(=O)OCC2CCCCC2)CC1 [Compound 20] | 5.51 |
| N[C@@H](Cc1cccs1)C(=O)N1CCC(Cc2ccc(Cl)cc2)(C(=O)OCC2CCCCC2)CC1 [Compound 14] | 6.46 |

Other lines, results leading:

| pIC50 | Compound |
| --- | --- |
| 5.30 | CC[C@H](N)C(=O)N1CCC(Cc2ccncc2)(C(=O)NC2CCCCC2)CC1 [Compound 72] |
| 7.20 | Nc1ccc(CC2(C(=O)NC3CCCCC3)CCN(C(=O)[C@@H](N)Cc3cccs3)CC2)cc1 [Compound 95] |
| 5.77 | N[C@@H](Cc1c[nH]cn1)C(=O)N1CCC(Cc2ccc(F)cc2F)(C(=O)OCC2CCCCC2)CC1 [Compound 28] |
| 7.44 | N[C@@H](Cc1cccs1)C(=O)N1CCC(Cc2ccc(C(=O)N3CCOCC3)cc2)(C(=O)NC2CCCCC2)CC1 [Compound 57] |
| 7.31 | N[C@@H](Cc1cccs1)C(=O)N1CCC(Cc2ccc(C(=O)NC3CCCCC3)cc2)(C(=O)NC2CCCCC2)CC1 [Compound 56] |
| 7.48 | N[C@@H](Cc1cccs1)C(=O)N1CCC(Cc2ccc(C(=O)Nc3ccccc3)cc2)(C(=O)NC2CCCCC2)CC1 [Compound 60] |
| 7.35 | N[C@@H](Cc1cccs1)C(=O)N1CCC(Cc2cccc(-c3ccc(O)nc3)c2)(C(=O)NC2CCCCC2)CC1 [Compound 98] |
| 6.82 | N[C@@H](Cc1cccs1)C(=O)N1CCC(Cc2ccc(NS(=O)(=O)C(F)(F)F)cc2)(C(=O)NC2CCCCC2)CC1 [Compound 89] |
| 5.04 | CC[C@H](N)C(=O)N1CCC(Cc2cccnc2)(C(=O)NC2CCCCC2)CC1 [Compound 67] |
| 7.40 | N[C@@H](Cc1cccs1)C(=O)N1CCC(Cc2ccccc2)(C(=O)NC2CCCCC2)CC1 [Compound 86] |
| 7.08 | N[C@@H](Cc1cccs1)C(=O)N1CCC(Cc2ccc(-c3ccccc3)cc2)(C(=O)NCC2CCCCC2)CC1 [Compound 3, (S)-1-(2-amino-3-(thiophen-2-yl)propanoyl)-4-(biphenyl-4-ylmethyl)-N-(cyclohexylmethyl)piperidine-4-carboxamide hydrochloride] |
| 7.28 | CC(=O)Nc1ccccc1-c1ccc(CC2(C(=O)NC3CCCCC3)CCN(C(=O)[C@@H](N)Cc3cccs3)CC2)cc1 [Compound 45] |
| 6.85 | N[C@@H](Cc1cccs1)C(=O)N1CCC(Cc2cccc(-c3cccc(C(=O)O)c3)c2)(C(=O)NC2CCCCC2)CC1 [Compound 101] |
| 7.41 | N[C@@H](Cc1cccs1)C(=O)N1CCC(Cc2ccc(-c3cccnc3Cl)cc2)(C(=O)NC2CCCCC2)CC1 [Compound 48] |
| 7.27 | N[C@@H](Cc1cccs1)C(=O)N1CCC(Cc2cccnc2)(C(=O)NC2CCCCC2)CC1 [Compound 66] |
